Test results taken from ChEMBL document CHEMBL1201861, “Genomics of Drug Sensitity in Cancer screening data, Wellcome Trust Sanger Institute”.

How the values were obtained:
UACC-62 = test: cells; format: functional, cell-based; conditions: Homo sapiens;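 note: growth inhibition of human UACC-62 cells, read out by a cell viability assay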
Description: SANGER: Inhibition of human UACC-62 cell growth in a cell viability assay.

HCC2157 = test: cells; format: functional, cell-based; conditions: Homo sapiens;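 note: growth inhibition of the cancer cell line, read out as cell viability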
Description: SANGER: Inhibition of human HCC2157 cell growth in a cell viability assay.

A253 cell line = test: cells; format: functional, cell-based; conditions: Homo sapiens;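 note: growth inhibition of A253 cells, read out with a cell viability assay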
Description: SANGER: Inhibition of human A253 cell growth in a cell viability assay.

BFTC-909 = test: cells; format: functional, cell-based; conditions: Homo sapiens
Description: SANGER: Inhibition of human BFTC-909 cell growth in a cell viability assay.

IMR-5 = test: cells; format: functional, cell-based; conditions: Homo sapiens;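 note: growth inhibition of human IMR-5 cells, read out with a cell viability assay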
Description: SANGER: Inhibition of human IMR-5 cell growth in a cell viability assay.

SK-LU-1 = test: cells; format: functional, cell-based; conditions: Homo sapiens;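 note: cell viability assay measuring growth inhibition of human SK-LU-1 cells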
Description: SANGER: Inhibition of human SK-LU-1 cell growth in a cell viability assay.

OPM-2 = test: cells; format: functional, cell-based; conditions: Homo sapiens;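 note: growth of OPM-2 cells measured with a viability assay, IC50 for suppression of proliferation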
Description: SANGER: Inhibition of human OPM-2 cell growth in a cell viability assay.

SNU-C1 = test: cells; format: functional, cell-based; conditions: Homo sapiens;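 note: growth inhibition of SNU-C1 human cells, read out by a cell viability assay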
Description: SANGER: Inhibition of human SNU-C1 cell growth in a cell viability assay.

HT1197 = test: cells; format: functional, cell-based, HT-1197; conditions: Homo sapiens
Description: SANGER: Inhibition of human HT-1197 cell growth in a cell viability assay.

SW780 = test: cells; format: functional, cell-based; conditions: Homo sapiens;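 note: growth inhibition of the cells, read out with a cell viability assay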
Description: SANGER: Inhibition of human SW780 cell growth in a cell viability assay.

RCM-1 = test: cells; format: functional, cell-based; conditions: Homo sapiens;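 note: growth inhibition of the RCM-1 line, determined with a cell viability readout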
Description: SANGER: Inhibition of human RCM-1 cell growth in a cell viability assay.

HCT-15 = test: cells; format: functional, cell-based; conditions: Homo sapiens;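 note: cell viability readout, IC50 reflecting suppression of HCT-15 cell growth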
Description: SANGER: Inhibition of human HCT-15 cell growth in a cell viability assay.

CAMA-1 = test: cells; format: functional, cell-based; conditions: Homo sapiens;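 note: growth inhibition of CAMA-1 cells, read out with a cell viability assay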
Description: SANGER: Inhibition of human CAMA-1 cell growth in a cell viability assay.

CAPAN-1 = test: cells; format: functional, cell-based; conditions: Homo sapiens;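 note: growth suppression of CAPAN-1 cells, read out by a cell viability assay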
Description: SANGER: Inhibition of human CAPAN-1 cell growth in a cell viability assay.

HCC1954 = test: cells; format: functional, cell-based; conditions: Homo sapiens;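 note: growth inhibition of human HCC1954 cells, read out with a cell viability assay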
Description: SANGER: Inhibition of human HCC1954 cell growth in a cell viability assay.

HSC-4 = test: cells; format: functional, cell-based; conditions: Homo sapiens;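 note: growth inhibition of human HSC-4 cells, read out with a cell viability assay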
Description: SANGER: Inhibition of human HSC-4 cell growth in a cell viability assay.

TYK-nu = test: cells; format: functional, cell-based; conditions: Homo sapiens;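 note: growth inhibition of human TYK-nu cells, read out by a cell viability assay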
Description: SANGER: Inhibition of human TYK-nu cell growth in a cell viability assay.

FaDu = test: cells; format: functional, cell-based; conditions: Homo sapiens;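 note: cell viability readout of growth inhibition in FaDu cells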
Description: SANGER: Inhibition of human FADU cell growth in a cell viability assay.

A204 = test: cells; format: functional, cell-based; conditions: Homo sapiens;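 note: growth inhibition of human A204 cells, read out with a cell viability assay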
Description: SANGER: Inhibition of human A204 cell growth in a cell viability assay.

G-361 = test: cells; format: functional, cell-based; conditions: Homo sapiens
Calu-3 = test: cells; format: functional, cell-based; conditions: Homo sapiens;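 note: growth inhibition of human Calu-3 cells, determined with a cell viability assay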
Description: SANGER: Inhibition of human Calu-3 cell growth in a cell viability assay.

SK-MEL3 = test: cells; format: functional, cell-based, SK-MEL-3; conditions: Homo sapiens;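 note: growth inhibition of human SK-MEL-3 cells, read out with a cell viability assay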
Description: SANGER: Inhibition of human SK-MEL-3 cell growth in a cell viability assay.

IGR-1 = test: cells; format: functional, cell-based; conditions: Homo sapiens;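 note: growth inhibition of human IGR-1 cells, read out with a cell viability assay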
Description: SANGER: Inhibition of human IGR-1 cell growth in a cell viability assay.

MIA PaCa-2 = test: cells; format: functional, cell-based; conditions: Homo sapiens;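 note: growth inhibition of MIA PaCa-2 cells, read out with a cell viability assay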
Description: SANGER: Inhibition of human MIA-PaCa-2 cell growth in a cell viability assay.

CESS = test: SANGER: Inhibition of human CESS cell growth in a cell viability assay.; format: functional, cell-based
RL = test: cells; format: functional, cell-based; conditions: Homo sapiens
Description: SANGER: Inhibition of human RL cell growth in a cell viability assay.

GMS-10 = test: cells; format: functional, cell-based; conditions: Homo sapiens;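 note: growth inhibition of GMS-10 cells, read out as cell viability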
Description: SANGER: Inhibition of human GMS-10 cell growth in a cell viability assay.

SK-MEL-28 = test: cells; format: functional, cell-based; conditions: Homo sapiens;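 note: growth inhibition of human SK-MEL-28 cells, read out with a cell viability assay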
Description: SANGER: Inhibition of human SK-MEL-28 cell growth in a cell viability assay.

HCC1395 = test: cells; format: functional, cell-based; conditions: Homo sapiens;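 note: growth inhibition of HCC1395 cells, read out by a cell viability assay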
Description: SANGER: Inhibition of human HCC1395 cell growth in a cell viability assay.

BXPC-3 = test: cells; format: functional, cell-based; conditions: Homo sapiens;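 note: growth inhibition of human BxPC-3 cells, read out by a cell viability assay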
Description: SANGER: Inhibition of human BxPC-3 cell growth in a cell viability assay.

ARH-77 = test: cells; format: functional, cell-based; conditions: Homo sapiens;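 note: growth inhibition of ARH-77 cells, read out by a cell viability assay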
Description: SANGER: Inhibition of human ARH-77 cell growth in a cell viability assay.

LU-165 = test: cells; format: functional, cell-based; conditions: Homo sapiens
Description: SANGER: Inhibition of human LU-165 cell growth in a cell viability assay.

SW-620 = test: cells; format: functional, cell-based; conditions: Homo sapiens;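 note: growth inhibition of human SW-620 cells, measured by a cell viability assay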
Description: SANGER: Inhibition of human SW620 cell growth in a cell viability assay.

NCI-H2141 = test: cells; format: functional, cell-based; conditions: Homo sapiens;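 note: growth inhibition of human NCI-H2141 cells, read out with a cell viability assay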
Description: SANGER: Inhibition of human NCI-H2141 cell growth in a cell viability assay.

KYSE-270 = test: cells; format: functional, cell-based; conditions: Homo sapiens;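 note: cell growth inhibition measured with a viability assay in the human KYSE-270 line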
Description: SANGER: Inhibition of human KYSE-270 cell growth in a cell viability assay.

T47D = test: cells; format: functional, cell-based; conditions: Homo sapiens;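 note: growth inhibition of human T47D cells, measured with a cell viability assay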
Description: SANGER: Inhibition of human T47D cell growth in a cell viability assay.

MDA-MB-415 = test: cells; format: functional, cell-based; conditions: Homo sapiens
SCC-3 = test: cells; format: functional, cell-based; conditions: Homo sapiens;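 note: cell viability assay measuring inhibition of SCC-3 cell growth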
Description: SANGER: Inhibition of human SCC-3 cell growth in a cell viability assay.

CAL-62 = test: cells; format: functional, cell-based; conditions: Homo sapiens;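 note: growth inhibition of CAL-62 cells, read out with a cell viability assay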
Description: SANGER: Inhibition of human CAL-62 cell growth in a cell viability assay.

MKN-45 = test: cells; format: functional, cell-based; conditions: Homo sapiens;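 note: growth inhibition of human MKN-45 cells, measured with a cell viability assay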
Description: SANGER: Inhibition of human MKN45 cell growth in a cell viability assay.

U2OS = test: cells; format: functional, cell-based, U-2-OS; conditions: Homo sapiens;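 note: growth inhibition of human U-2-OS cells, determined with a cell viability assay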
Description: SANGER: Inhibition of human U-2-OS cell growth in a cell viability assay.

RPMI-7951 = test: cells; format: functional, cell-based; conditions: Homo sapiens
Description: SANGER: Inhibition of human RPMI-7951 cell growth in a cell viability assay.

SU-DHL-1 = test: SANGER: Inhibition of human SU-DHL-1 cell growth in a cell viability assay.; format: functional, cell-based
Daoy = test: cells; format: functional, cell-based; conditions: Homo sapiens;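 note: daoy cell growth inhibition, read out as cell viability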
Description: SANGER: Inhibition of human Daoy cell growth in a cell viability assay.

NCI-H1963 = test: cells; format: functional, cell-based; conditions: Homo sapiens;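 note: cell growth inhibition of the human line, determined with a cell viability assay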
Description: SANGER: Inhibition of human NCI-H1963 cell growth in a cell viability assay.

CHP-126 = test: cells; format: functional, cell-based; conditions: Homo sapiens
Description: SANGER: Inhibition of human CHP-126 cell growth in a cell viability assay.

NCI-H650 = test: cells; format: functional, cell-based; conditions: Homo sapiens;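 note: growth inhibition of NCI-H650 cells, read out by a viability assay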
Description: SANGER: Inhibition of human NCI-H650 cell growth in a cell viability assay.

C3A = test: cells; format: functional, cell-based; conditions: Homo sapiens;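 note: growth inhibition of C3A human cells, quantified with a cell viability readout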
Description: SANGER: Inhibition of human C3A cell growth in a cell viability assay.

CHP-212 = test: cells; format: functional, cell-based; conditions: Homo sapiens
Description: SANGER: Inhibition of human CHP-212 cell growth in a cell viability assay.

NCI-H64 = test: cells; format: functional, cell-based; conditions: Homo sapiens;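 note: growth inhibition of NCI-H64 cells, read out with a cell viability assay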
Description: SANGER: Inhibition of human NCI-H64 cell growth in a cell viability assay.

HuP-T4 = test: cells; format: functional, cell-based; conditions: Homo sapiens;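 note: cell viability assay measuring how much HuP-T4 cell growth is inhibited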
Description: SANGER: Inhibition of human HuP-T4 cell growth in a cell viability assay.

HSC-2 = test: cells; format: functional, cell-based; conditions: Homo sapiens;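 note: growth inhibition of human HSC-2 cells, read out by a cell viability assay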
Description: SANGER: Inhibition of human HSC-2 cell growth in a cell viability assay.

Panc1005 = test: cells; format: functional, cell-based; conditions: Homo sapiens;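 note: growth inhibition of human PANC-10-05 cells, measured by a cell viability assay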
Description: SANGER: Inhibition of human PANC-10-05 cell growth in a cell viability assay.

MEL-JUSO = test: cells; format: functional, cell-based; conditions: Homo sapiens;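 note: growth inhibition of human MEL-JUSO cells, read out with a cell viability assay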
Description: SANGER: Inhibition of human MEL-JUSO cell growth in a cell viability assay.

NCI-H1882 = test: cells; format: functional, cell-based; conditions: Homo sapiens;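 note: growth inhibition of the cell line, determined with a viability assay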
Description: SANGER: Inhibition of human NCI-H1882 cell growth in a cell viability assay.

K052 = test: cells; format: functional, cell-based; conditions: Homo sapiens;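 note: Read-out from a cell viability assay, IC50 reflecting suppression of K052 cell growth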
Description: SANGER: Inhibition of human K052 cell growth in a cell viability assay.

ABC-1 = test: cells; format: functional, cell-based; conditions: Homo sapiens;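 note: growth inhibition of human ABC-1 cells, read out by a cell viability assay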
Description: SANGER: Inhibition of human ABC-1 cell growth in a cell viability assay.

AN3-CA = test: cells; format: functional, cell-based; conditions: Homo sapiens;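 note: growth inhibition of human AN3-CA cells measured by a cell viability assay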
Description: SANGER: Inhibition of human AN3-CA cell growth in a cell viability assay.

EGI-1 = test: cells; format: functional, cell-based; conditions: Homo sapiens;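 note: cell viability readout used to gauge growth inhibition of EGI-1 cells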
Description: SANGER: Inhibition of human EGI-1 cell growth in a cell viability assay.

C32 = test: cells; format: functional, cell-based; conditions: Homo sapiens;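 note: cell viability assay, with IC50 reflecting inhibition of C32 cell growth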
Description: SANGER: Inhibition of human C32 cell growth in a cell viability assay.

ASPC1 = test: cells; format: functional, cell-based; conditions: Homo sapiens
Description: SANGER: Inhibition of human AsPC-1 cell growth in a cell viability assay.

KYSE-450 = test: cells; format: functional, cell-based; conditions: Homo sapiens
Description: SANGER: Inhibition of human KYSE-450 cell growth in a cell viability assay.

Measured: IC50

C/C(O)=C(\C#N)C(=O)Nc1cc(Br)ccc1Br
> 16 µM: UACC-62 | HCC2157 | A253 cell line | BFTC-909 | IMR-5 | SK-LU-1 | OPM-2 | SNU-C1 | HT1197 | SW780 | RCM-1 | HCT-15 | CAMA-1 | CAPAN-1 | HCC1954 | HSC-4 | TYK-nu | FaDu | A204 | G-361 | Calu-3 | SK-MEL3 | IGR-1 | MIA PaCa-2 | CESS | RL | GMS-10 | SK-MEL-28 | HCC1395 | BXPC-3 | ARH-77 | LU-165 | SW-620 | NCI-H2141 | KYSE-270 | T47D | MDA-MB-415 | SCC-3 | CAL-62 | MKN-45 | U2OS | RPMI-7951 | SU-DHL-1 | Daoy | NCI-H1963 | CHP-126 | NCI-H650 | C3A | CHP-212 | NCI-H64 | HuP-T4 | HSC-2 | Panc1005 | MEL-JUSO | NCI-H1882 | K052 | ABC-1 | AN3-CA | EGI-1 | C32 | ASPC1 | KYSE-450
